{"source": "patent US20220403032A1", "about": "“THERAPY FOR DIABETES USING STEM CELL MIGRATION AGENT” (Biozipcode, Inc., priority 2019, published 2022)", "tested_on": "diabetic patients (type 1 and type 2 diabetes mellitus)", "experiment": "Research Plan 2: therapy of diabetes mellitus targeting a bone marrow-derived abnormal hematopoietic stem cell", "assay_type": "in vivo, human", "settings": "type 1 and type 2 diabetic patients; twelve weeks of therapy; predicted result", "data": [{"substance": "insulin [insulin alone]", "values": [{"measurement": "Effect of eliminating an abnormal hematopoietic stem cell", "value": "not eliminated"}, {"measurement": "Effect of healing diabetes mellitus", "value": "not observed"}, {"measurement": "Therapeutic effect on a complication", "value": "observed to some extent, but the complication does not heal"}]}]}
